Laboratory results: patent US11530181B2, “IL-6 inhibitors and methods of treatment” (University of Florida Research Foundation, Incorporated, priority 2018, dated 2022)

Experiments:
[1] = test system: LIF induced STAT3 phosphorylation; assay: Western blot, LIF induced STAT3 phosphorylation in MCF7; format: cell-based, human
Experimental: (§1) Cells were harvested and lysed in cold radioimmunoprecipitation assay (RIPA) lysis buffer containing proteasome inhibitor cocktail and phosphatase inhibitor cocktail. The protein concentrations were determined using the BCA Protein Assay kit. After adding the loading buffer and boiling at 95° C. for 10 minutes, equivalent amounts of proteins were loaded on and separated by SDS-PAGE, and then were transferred to PVDF membranes. Membranes were probed with primary antibodies (1:1000) against phospho-STAT3 (Tyr705), STAT3, phospho-STAT1 (Tyr701), STAT1, phospho-STAT6 (Tyr 641), STAT6, and GAPDH, respectively, and horseradish peroxidase (HRP)-conjugated secondary antibody (1:10000) (Cell Signaling Technology, Beverly, Mass.). Membranes were analyzed using Enhanced Chemiluminescence Plus reagents and either scanned with the Storm Scanner (Amersham Pharmacia Biotech, Inc., Piscataway, N.J.) or imaged with ChemiDoc MP imaging system (Bio-Rad, Hercules, Calif.). […] The cells were harvested after 30 minutes and analyzed by Western blot.
(§2) MCF7 breast cancer cells were seeded in 10 cm plates (1 million cells per plate) and allowed to adhere overnight. […] The cells were harvested after 30 minutes and analyzed by western blotting.

[2] = test system: INF-γ induced STAT1 phosphorylation; assay: Western blot, INF-γ induced STAT1 phosphorylation in MCF7; format: cell-based, human; conditions: MCF7, pre-treatment 2, 3 and 4 hours
Experimental: as §1, §2

PE/CA-PJ49 cell line = assay: Inhibitory activity in PTPRD mutant cell line PE/CA-PJ49; format: cell-based; conditions: PE/CA-PJ49, 48 h
Experimental: Human breast cancer cell lines MCF7, MDA-MB-231 and SUM159 were maintained in Dulbecco's modified Eagle medium (DMEM). Human pancreatic cancer cell line BxPC-3 was maintained in RPMI 1640 medium. Human pancreatic cancer cell line Capan-1 was maintained in Iscove's Modified Dulbecco's Medium (IMEM). All media were supplemented with 10% FBS and 1% penicillin/streptomycin, and cells were incubated in a humidified 37° C. incubator with 5% CO2. PE/CA-PJ49 cell line was purchased from external sources and maintained according to manufacturer's protocol.
Cell viability was evaluated by using the MTT assay in triple replicates in one experiment and repeated for three times. Cancer cells were seeded in 96-well plates at a density of 3,000 cells per well. The cells were incubated at 37° C. for a period of 24 hours. Escalating concentrations of IL-6/gp130 inhibitors were added in triplicate to the plates in the presence of 10% FBS. After incubation for 48 or 72 hours, a stock solution of MTT (0.5 mg/ml) was then added to each well containing the treated cells, followed by incubation at 37° C. for 3 h. After removal of medium, the MTT dye was dissolved with spectrophotometric grade DMSO and the absorbance was read at 570 nm. The IC50 value is determined by interpolation based on the absorbance value halfway between positive and negative controls. In the experiment of LLM4 showing higher efficacy in cancer cells with higher levels of IL-6, instead of using medium with 10% FBS, DMEM with 0% FBS was used in order to eliminate the influence of trace amounts of growth factors and cytokines in FBS.
Protein tyrosine […] receptor type D (PTPRD) is reported to serve as a tumor suppressor in various human cancers [Peyser et. al, PLoS One (2015) 10(8)]. PTPRD mutation is also known to be associated with increased STAT3 expression [Peyser et. al, PLoS One (2015) 10(8)]. Table 8 captures the inhibitory activities of various compounds in the PTPRD mutant cell line, PE/CA-PJ49.

IC50 (PE/CA-PJ49 cell line) [µM] | Compound | LIF induced STAT3 phosphorylation ([1]; MCF7, 15 μM, 2, 3 and 4 hours) | effect on INF-γ induced STAT1 phosphorylation ([2]; 15 μM) | inhibition of LIF induced STAT3 phosphorylation ([1]; MCF7, 4 μM) | effect on STAT1 phosphorylation [2]
 | O=C(Nc1cc(F)ccc1-n1cccc1)c1ccc(OCCCN2CCCCC2)cc1 [LLM4, N-(5-fluoro-2-(1H-pyrrol-1-yl)phenyl)-4-(3-(piperidin-1-yl)propoxy)benzamide] | remain intact | no effect |  | 
3.41 ± 0.99 | O=C(Nc1cccc(OCCN2CCCCC2)c1)Nc1cccc(-c2ccn[nH]2)c1 [LLM414, 1-(3-(1H-pyrazol-5-yl)phenyl)-3-(3-(2-(piperidin-1-yl)ethoxy)phenyl)urea] |  |  |  | 
1.79 ± 0.48 | O=C(Nc1ccccc1-c1ccn[nH]1)c1ccc(OCCN2CCCCC2)cc1 [LLM418, N-(2-(1H-pyrazol-5-yl)phenyl)-4-(2-(piperidin-1-yl)ethoxy)benzamide] |  |  | very little inhibitory effect | little effect
